What follows are molecules tested against T1, human liver GK (Homo sapiens, UniProt P35557) (assay: GK activation test). Conditions: test compound concentration needed to activate 50% of maximum activation ability; 4 mM 14C-labeled glucose, 2 mM ATP, room temperature, 20 minutes.
T1 construct: GST (glutathione S-transferase) (N); made in house; host or cells: E. coli
T1 sequence (P35557 1-466 isoform P35557-2): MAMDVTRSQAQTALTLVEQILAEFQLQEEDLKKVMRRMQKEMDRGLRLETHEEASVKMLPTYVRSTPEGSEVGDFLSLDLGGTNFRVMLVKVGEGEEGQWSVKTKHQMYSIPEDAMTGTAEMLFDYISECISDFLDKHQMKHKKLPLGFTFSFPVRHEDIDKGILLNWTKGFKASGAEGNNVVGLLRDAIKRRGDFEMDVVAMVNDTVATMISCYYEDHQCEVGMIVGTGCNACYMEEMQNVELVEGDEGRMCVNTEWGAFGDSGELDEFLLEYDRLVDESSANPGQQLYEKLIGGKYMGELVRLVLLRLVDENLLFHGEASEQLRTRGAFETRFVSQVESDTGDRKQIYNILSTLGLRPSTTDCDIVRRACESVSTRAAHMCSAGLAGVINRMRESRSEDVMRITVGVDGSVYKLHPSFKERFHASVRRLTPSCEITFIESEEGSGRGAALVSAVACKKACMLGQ
Type: biochemical
Outline: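 GST-tagged human liver GK from E. coli (0.24 μg/well) with 4 mM 14C-glucose, 2 mM ATP in Hepes-KOH pH 7.1, KCl, MgCl2, DTT, 1% DMSO, 20 min room temperature. Labeled glucose 6-phosphate captured on anion resin, eluted and counted. EC50 = concentration giving half of maximal activation.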

| EC50 [nM] | SMILES |
| --- | --- |
| 10 to 500 | CSc1ccc(/C(=C\C2CCOC2)c2ccc(C3CC3)c(=O)[nH]2)cc1 (stereo not shown) [Example 1-47, 3-Cyclopropyl-6-[(E)-1-[4-(methylsulfanyl)phenyl]-2-(tetrahydrofuran-3-yl)ethenyl]pyridin-2(1H)-one] |
| 500 to 3000 | O=c1[nH]c(/C(=C/C2CCOC2)c2ccc(SC3CC3)cc2)ccc1C(F)(F)F (stereo not shown) [Example 1-48, 6-{(E)-1-[4-(Cyclopropylsulfanyl)phenyl]-2-(tetrahydrofuran-3-yl)ethenyl}-3-(trifluoromethyl)pyridin-2(1H)-one] |
| 500 to 3000 | CCOc1ccc(/C(=C\C2CCOCC2)c2ccc(C3CC3)c(=O)[nH]2)cc1 [Example 1-52, 3-Cyclopropyl-6-[(E)-1-(4-ethoxyphenyl)-2-(tetrahydro-2H-pyran-4-yl)ethenyl]pyridin-2(1H)-one] |
| 500 to 3000 | COc1ccc(/C(=C\C2CCOCC2)c2ccc(C3CC3)c(=O)[nH]2)cc1Cl [Example 1-53, 6-[(E)-1-(3-Chloro-4-methoxyphenyl)-2-(tetrahydro-2H-pyran-4-yl)ethenyl]-3-cyclopropylpyridin-2(1H)-one] |
| 500 to 3000 | CSc1ccc(/C(=C\C2CCOCC2)c2ccc(C)c(=O)[nH]2)cc1Cl [Example 1-55, 6-[(E)-1-[3-Chloro-4-(methylsulfanyl)phenyl]-2-(tetrahydro-2H-pyran-4-yl)ethenyl]-3-methylpyridin-2(1H)-one] |
| 10 to 500 | CCOc1ccc(/C(=C\[C@H]2CCC(=O)C2)c2ccc(CC)c(=O)[nH]2)cc1Cl [Example 1-59, 6-{(E)-1-(3-Chloro-4-ethoxyphenyl)-2-[(1S)-3-oxocyclopentyl]ethenyl}-3-ethylpyridin-2(1H)-one] |
| 10 to 500 | Cc1ccc(/C(=C/[C@H]2CCC(=O)C2)c2ccc(S(=O)(=O)C3CC3)cc2)[nH]c1=O [Example 1-61, 6-{(E)-1-[4-(Cyclopropylsulfonyl)phenyl]-2-[(1S)-3-oxocyclopentyl]ethenyl}-3-methylpyridin-2(1H)-one] |
| 500 to 3000 | O=C1CC[C@H](/C=C(\c2ccc(S(=O)(=O)C3CC3)cc2)c2ccc(C(F)(F)F)c(=O)[nH]2)C1 [Example 1-63, 6-{(E)-1-[4-(Cyclopropylsulfonyl)phenyl]-2-[(1S)-3-oxocyclopentyl]ethenyl}-3-(trifluoromethyl)pyridin-2(1H)-one] |
| 10 to 500 | CSc1ccc(/C(=C\[C@H]2CCC(=O)C2)c2ccc(C)c(=O)[nH]2)cc1Cl [Example 1-67, 6-{(E)-1-[3-Chloro-4-(methylsulfanyl)phenyl]-2-[(1S)-3-oxocyclopentyl]ethenyl}-3-methylpyridin-2(1H)-one] |
| 10 to 500 | CCc1ccc(/C(=C/[C@H]2CCC(=O)C2)c2ccc(S(C)(=O)=O)c(Cl)c2)[nH]c1=O [Example 1-70, 6-{(E)-1-[3-Chloro-4-(methylsulfonyl)phenyl]-2-[(1S)-3-oxocyclopentyl]ethenyl}-3-ethylpyridin-2(1H)-one] |
| 10 to 500 | CS(=O)(=O)c1ccc(/C(=C\[C@H]2CCC(=O)C2)c2ccc(C3CC3)c(=O)[nH]2)cc1Cl [Example 1-72, 6-{(E)-1-[3-Chloro-4-(methylsulfonyl)phenyl]-2-[(1S)-3-oxocyclopentyl]ethenyl}-3-cyclopropylpyridin-2(1H)-one] |
| 10 to 500 | CCc1ccc(/C(=C/[C@H]2CCC(=O)C2)c2ccc(SCCCO)c(Cl)c2)[nH]c1=O [Example 1-75, 6-{(E)-1-{3-Chloro-4-[(3-hydroxypropyl)sulfanyl]phenyl}-2-[(1S)-3-oxocyclopentyl]ethenyl}-3-ethylpyridin-2(1H)-one] |
| 10 to 500 | CCc1ccc(/C(=C/[C@H]2CCC(=O)C2)c2ccc(SCCCN(CC)CC)c(Cl)c2)[nH]c1=O [Example 1-77, 6-{(E)-1-(3-Chloro-4-{[3-(diethylamino)propyl]sulfanyl}phenyl)-2-[(1S)-3-oxocyclopentyl]ethenyl}-3-ethylpyridin-2(1H)-one] |

Further lines, the molecule ahead of its results:

| SMILES | EC50 [nM] |
| --- | --- |
| CSc1ccc(/C(=C\CC2CCOC2)c2ccc(C3CC3)c(=O)[nH]2)cc1 (stereo not shown) [Example 1-49, 3-Cyclopropyl-6-{(1E)-1-[4-(methylsulfanyl)phenyl]-3-(tetrahydrofuran-3-yl)prop-1-en-1-yl}pyridin-2(1H)-one] | 500 to 3000 |
| COc1ccc(/C(=C\CC2CCCO2)c2ccc(C3CC3)c(=O)[nH]2)cc1Cl (stereo not shown) [Example 1-50, 6-[(1E)-1-(3-Chloro-4-methoxyphenyl)-3-(tetrahydrofuran-2-yl)prop-1-en-1-yl]-3-cyclopropylpyridin-2(1H)-one] | 500 to 3000 |
| COc1ccc(/C(=C\C2CCOCC2)c2ccc(C3CC3)c(=O)[nH]2)cc1 [Example 1-51, 3-Cyclopropyl-6-[(E)-1-(4-methoxyphenyl)-2-(tetrahydro-2H-pyran-4-yl)ethenyl]pyridin-2(1H)-one] | 500 to 3000 |
| COc1ccc(/C(=C\C2CCOCC2)c2ccc(C(F)(F)F)c(=O)[nH]2)cc1Cl [Example 1-54, 6-[(E)-1-(3-Chloro-4-methoxyphenyl)-2-(tetrahydro-2H-pyran-4-yl)ethenyl]-3-(trifluoromethyl)pyridin-2(1H)-one] | 500 to 3000 |
| Cc1ccc(/C(=C/C2CCOCC2)c2ccc(S(C)(=O)=O)c(Cl)c2)[nH]c1=O [Example 1-56, 6-{(E)-1-[3-Chloro-4-(methylsulfonyl)phenyl]-2-(tetrahydro-2H-pyran-4-yl)ethenyl}-3-methylpyridin-2(1H)-one] | 500 to 3000 |
| CCN(CC)CCCOc1ccc(/C(=C\C2CCOCC2)c2ccc(C3CC3)c(=O)[nH]2)cc1Cl [Example 1-57, 6-[(E)-1-{3-Chloro-4-[3-(diethylamino)propoxy]phenyl}-2-(tetrahydro-2H-pyran-4-yl)ethenyl]-3-cyclopropylpyridin-2(1H)-one] | 500 to 3000 |
| CCc1ccc(/C(=C\[C@H]2CCC(=O)C2)c2ccc(C3CC3)c(=O)[nH]2)cc1 [Example 1-58, 3-Cyclopropyl-6-{(E)-1-(4-ethylphenyl)-2-[(1S)-3-oxocyclopentyl]ethenyl}pyridin-2(1H)-one] | 10 to 500 |
| Cc1ccc(/C(=C/[C@H]2CCC(=O)C2)c2ccc(SC3CC3)cc2)[nH]c1=O [Example 1-60, 6-{(E)-1-[4-(Cyclopropylsulfanyl)phenyl]-2-[(1S)-3-oxocyclopentyl]ethenyl}-3-methylpyridin-2(1H)-one] | 10 to 500 |
| CCc1ccc(/C(=C/[C@H]2CCC(=O)C2)c2ccc(S(=O)(=O)C3CC3)cc2)[nH]c1=O [Example 1-62, 6-{(E)-1-[4-(Cyclopropylsulfonyl)phenyl]-2-[(1S)-3-oxocyclopentyl]ethenyl}-3-ethylpyridin-2(1H)-one] | 10 to 500 |
| CSc1ccc(/C(=C\[C@H]2CCC(=O)C2)c2ccc(C(C)C)c(=O)[nH]2)cc1 [Example 1-64, 6-{(E)-1-[4-(Methylsulfanyl)phenyl]-2-[(1S)-3-oxocyclopentyl]ethenyl}-3-(propan-2-yl)pyridin-2(1H)-one] | 10 to 500 |
| CSc1ccc(/C(=C\[C@H]2CCC(=O)C2)c2ccc(C3CC3)c(=O)[nH]2)cc1 [Example 1-65, 3-Cyclopropyl-6-{(E)-1-[4-(methylsulfanyl)phenyl]-2-[(1S)-3-oxocyclopentyl]ethenyl}pyridin-2(1H)-one] | 10 to 500 |
| CCN(CC)CCCOc1ccc(/C(=C\[C@H]2CCC(=O)C2)c2ccc(C3CC3)c(=O)[nH]2)cc1 [Example 1-66, 3-Cyclopropyl-6-{(E)-1-{4-[3-(diethylamino)propoxy]phenyl}-2-[(1S)-3-oxocyclopentyl]ethenyl}pyridin-2(1H)-one] | 500 to 3000 |
| Cc1ccc(/C(=C/[C@H]2CCC(=O)C2)c2ccc(S(C)(=O)=O)c(Cl)c2)[nH]c1=O [Example 1-68, 6-{(E)-1-[3-Chloro-4-(methylsulfonyl)phenyl]-2-[(1S)-3-oxocyclopentyl]ethenyl}-3-methylpyridin-2(1H)-one] | 500 to 3000 |
| CCc1ccc(/C(=C/[C@H]2CCC(=O)C2)c2ccc(SC)c(Cl)c2)[nH]c1=O [Example 1-69, 6-{(E)-1-[3-Chloro-4-(methylsulfanyl)phenyl]-2-[(1S)-3-oxocyclopentyl]ethenyl}-3-ethylpyridin-2(1H)-one] | 10 to 500 |
| CSc1ccc(/C(=C\[C@H]2CCC(=O)C2)c2ccc(C3CC3)c(=O)[nH]2)cc1Cl [Example 1-71, 6-{(E)-1-[3-Chloro-4-(methylsulfanyl)phenyl]-2-[(1S)-3-oxocyclopentyl]ethenyl}-3-cyclopropylpyridin-2(1H)-one] | 10 to 500 |
| Cc1ccc(/C(=C/[C@H]2CCC(=O)C2)c2ccc(SCCCO)c(Cl)c2)[nH]c1=O [Example 1-73, 6-{(E)-1-{3-Chloro-4-[(3-hydroxypropyl)sulfanyl]phenyl}-2-[(1S)-3-oxocyclopentyl]ethenyl}-3-methylpyridin-2(1H)-one] | 10 to 500 |
| Cc1ccc(/C(=C/[C@H]2CCC(=O)C2)c2ccc(S(=O)(=O)CCCO)c(Cl)c2)[nH]c1=O [Example 1-74, 6-{(E)-1-{3-Chloro-4-[(3-hydroxypropyl)sulfonyl]phenyl}-2-[(1S)-3-oxocyclopentyl]ethenyl}-3-methylpyridin-2(1H)-one] | 500 to 3000 |
| CCc1ccc(/C(=C/[C@H]2CCC(=O)C2)c2ccc(S(=O)(=O)CCCO)c(Cl)c2)[nH]c1=O [Example 1-76, 6-{(E)-1-{3-Chloro-4-[(3-hydroxypropyl)sulfonyl]phenyl}-2-[(1S)-3-oxocyclopentyl]ethenyl}-3-ethylpyridin-2(1H)-one] | 10 to 500 |

From US8822503B2, “2-pyridone compounds” (Taisho Pharmaceutical Co., Ltd, priority 2009, dated 2014)
